Laboratory results taken from patent US7019034B2, “Compositions and methods for reducing serum glucose and triglyceride levels in diabetic mammals” (Allergan, Inc., priority 2003, dated 2006).

How the values were obtained:
RXRα = target: T1, RXRα (Homo sapiens, UniProt P19793); assay: ligand binding assay, RXRα; conditions: read-out: RXR Bind Ki α
T1 construct: expressed in transfected cells
T1 sequence (P19793 1-462): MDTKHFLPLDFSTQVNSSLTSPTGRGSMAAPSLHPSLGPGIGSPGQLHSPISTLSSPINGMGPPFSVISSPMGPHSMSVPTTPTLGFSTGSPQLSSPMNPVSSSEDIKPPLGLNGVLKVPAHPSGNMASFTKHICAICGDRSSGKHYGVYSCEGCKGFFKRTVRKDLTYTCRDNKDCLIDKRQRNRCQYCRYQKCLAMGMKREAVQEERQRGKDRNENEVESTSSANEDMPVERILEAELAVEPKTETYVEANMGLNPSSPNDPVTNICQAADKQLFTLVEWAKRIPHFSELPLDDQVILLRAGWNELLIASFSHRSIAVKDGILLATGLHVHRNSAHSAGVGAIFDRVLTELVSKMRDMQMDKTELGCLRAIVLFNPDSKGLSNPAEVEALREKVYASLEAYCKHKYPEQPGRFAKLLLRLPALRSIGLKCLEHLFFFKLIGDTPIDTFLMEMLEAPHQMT
Text: (§1) A holoreceptor transactivation assay and a ligand binding assay which measure the antagonist/agonist like activity of the compounds of the invention, or their ability to bind to the several retinoid receptor subtypes, respectively, are described in published PCT Application No. WO WO93/11755 (particularly on pages 30–33 and 37–41) published on Jun. 24, 1993, the specification of which is also incorporated herein by reference. […] The results obtained in this assay are expressed in EC50 numbers, as they are also in the chimeric receptor transactivation assay. The results of the ligand binding assay are expressed in Ki numbers. (See Cheng et al. Biochemical Pharmacology Vol. 22 pp 3099–3108, expressly incorporated herein by reference.)
(§2) In Table 1 NA stands for not active at all as an agonist. ND stands for not determined. The first row of numbers pertaining to each compound is the measured EC50 number. […] The third row of numbers pertaining to each compound is the binding Ki number.

RARβ = target: T2, RARβ (Homo sapiens, UniProt P10826); assay: ligand binding assay, RARβ; conditions: read-out: RAR Bind. Ki β
T2 sequence (P10826 1-455): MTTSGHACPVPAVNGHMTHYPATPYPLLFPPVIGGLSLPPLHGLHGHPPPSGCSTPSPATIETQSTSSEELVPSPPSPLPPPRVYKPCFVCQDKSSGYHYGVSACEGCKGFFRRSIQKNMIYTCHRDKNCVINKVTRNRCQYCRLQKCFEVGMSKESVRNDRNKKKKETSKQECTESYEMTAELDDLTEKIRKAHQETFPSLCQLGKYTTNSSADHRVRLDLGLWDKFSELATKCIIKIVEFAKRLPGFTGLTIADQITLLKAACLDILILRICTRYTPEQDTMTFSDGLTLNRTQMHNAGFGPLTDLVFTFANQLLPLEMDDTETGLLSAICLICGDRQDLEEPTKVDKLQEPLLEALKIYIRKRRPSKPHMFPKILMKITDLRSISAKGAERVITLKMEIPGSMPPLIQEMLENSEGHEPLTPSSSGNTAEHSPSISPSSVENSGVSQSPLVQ
Text: as §1, §2

RARα = target: T3, RARα (Homo sapiens, UniProt P10276); assay: ligand binding assay, RARα; conditions: read-out: RAR Bind. Ki α
T3 sequence (P10276 1-462): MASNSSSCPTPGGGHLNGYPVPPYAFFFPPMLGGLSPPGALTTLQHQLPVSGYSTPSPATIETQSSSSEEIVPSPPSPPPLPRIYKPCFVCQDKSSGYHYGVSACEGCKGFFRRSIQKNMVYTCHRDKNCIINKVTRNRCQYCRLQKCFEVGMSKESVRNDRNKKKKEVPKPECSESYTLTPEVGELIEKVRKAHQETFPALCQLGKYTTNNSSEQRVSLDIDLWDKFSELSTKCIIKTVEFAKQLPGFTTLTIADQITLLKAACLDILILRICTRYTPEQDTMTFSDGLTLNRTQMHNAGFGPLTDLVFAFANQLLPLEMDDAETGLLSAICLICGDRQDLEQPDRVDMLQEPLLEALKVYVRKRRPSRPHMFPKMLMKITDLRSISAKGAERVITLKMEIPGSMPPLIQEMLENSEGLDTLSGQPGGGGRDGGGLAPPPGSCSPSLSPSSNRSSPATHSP
Text: as §1, §2

RARγ = target: T4, RARγ (Homo sapiens, UniProt P13631); assay: ligand binding assay, RARγ; conditions: read-out: RAR Bind. Ki γ
T4 sequence (P13631 1-454): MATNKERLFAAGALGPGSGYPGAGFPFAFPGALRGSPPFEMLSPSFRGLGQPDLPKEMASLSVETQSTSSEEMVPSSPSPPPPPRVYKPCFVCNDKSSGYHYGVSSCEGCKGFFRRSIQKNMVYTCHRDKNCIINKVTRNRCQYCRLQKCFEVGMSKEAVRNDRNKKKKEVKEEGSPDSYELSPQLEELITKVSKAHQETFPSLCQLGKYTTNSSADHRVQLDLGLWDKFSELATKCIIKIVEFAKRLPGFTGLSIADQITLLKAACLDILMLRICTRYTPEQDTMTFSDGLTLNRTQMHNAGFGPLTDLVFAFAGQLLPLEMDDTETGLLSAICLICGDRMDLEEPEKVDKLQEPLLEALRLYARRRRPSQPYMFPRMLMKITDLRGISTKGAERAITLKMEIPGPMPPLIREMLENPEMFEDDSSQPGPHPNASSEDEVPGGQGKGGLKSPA
Text: as §1, §2

| Ki (RXRα) [nM] | Ki (RARβ) [nM] | Ki (RARα) [nM] | Ki (RARγ) [nM] | Compound |
| --- | --- | --- | --- | --- |
| 22 | 540 | 152 | 1510 | CCOc1cc2c(cc1\C(CC)=C(F)/C=C/C(C)=C/C(=O)O)C(C)(C)CCC2(C)C [Compound 2, (2E,4E,6E)-7-(3-Ethoxy-5,5,8,8-tetramethyl-5,6,7,8-tetrahydronaphthalen-2-yl)-6-fluoro-3-methylnona-2,4,6-trienoic acid] |
| 6 | 490 | 590 | 720 | CCCOc1cc2c(cc1\C(C)=C(F)/C=C/C(C)=C/C(=O)O)C(C)(C)CCC2(C)C [Compound 4] |
